Read-outs that look alike come from different tables or passages of the source.

The subject of one assay is DOHH2 cells. Nature of the assay: Cell proliferation assay (MTS), DOHH2 cells, 120 h. Format: cell-based. The method in brief:
(§1)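 Cells in RPMI-1640 with 10% FBS were seeded at 5000/well, left overnight at 37° C., 5% CO2, then exposed to compound at 10000 down to 1.5 nM (nine concentrations) for 72 h (RS4;11) or 120 h (DOHH2). Viability was read by MTS, 2 h, absorbance at 490/650 nm; IC50 calculated.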

Another assay deals with RS4;11 cells. Description: Cell proliferation assay (MTS), RS4;11 cells, 72 h. The assay is classed as cell-based. In outline:
as §1

Usually IC50 stands for the concentration that inhibits the measured activity by half. Low values mean higher potency, high ones lower potency. Regarding `CC1(C)CCC(CN2CCN(c3ccc(C(=O)NS(=O)(=O)c4cc5c(c([N+](=O)[O-])c4)N[C@@H](C4CCN(S(C)(=O)=O)CC4)CO5)c(Oc4cnc5[nH]ccc5c4)c3)CC2)=C(c2ccc(Cl)cc2)C1` [Example 2-232, (S)-2-((1H-pyrrolo[2,3-b]pyridin-5-yl)oxy)-4-(4-((4′-chloro-5,5-dimethyl-3,4,5,6-tetra-hydro-[1,1′-biphenyl]-2-yl)methyl)piperazin-1-yl)-N-((3-(1-(methyslulfonyl)piperidin-4-yl)-5-nitro-3,4-dihydro-2H-benzo[b][1,4]oxazin-7-yl)sulfonyl)benzamide], the IC50 with DOHH2 cells (Homo sapiens, DOHH-2, 120 h) is 1 nM; in the assay on RS4;11 cells (Homo sapiens, RS4-11, 72 h) it was 6 nM.

As for `CN1CCC([C@H]2COc3cc(S(=O)(=O)NC(=O)c4ccc(N5CCN(CC6=C(c7ccc(Cl)cc7)CC(C)(C)CC6)CC5)cc4Oc4cnc5[nH]ccc5c4)cc([N+](=O)[O-])c3N2)CC1` [Example 2-233, (S)-2-((1H-pyrrolo[2,3-b]pyridin-5-yl)oxy)-4-(4-((4′-chloro-5,5-dimethyl-3,4,5,6-tetra-hydro-[1,1′-biphenyl]-2-yl)methyl)piperazin-1-yl)-N-((3-(1-methylpiperidin-4-yl)-5-ni-tro-3,4-dihydro-2H-benzo[b][1,4]oxazin-7-yl)sulfonyl)benzamide], the IC50 was 13 nM with DOHH2 cells (Homo sapiens, DOHH-2, 120 h) and 17 nM with RS4;11 cells (Homo sapiens, RS4-11, 72 h).

Regarding `CC1(C)CCC(c2ccc(Cl)cc2)=C(CN2CCN(c3ccc(C(=O)NS(=O)(=O)c4cc5c(c([N+](=O)[O-])c4)N[C@H](COC4CCOCC4)CO5)c(Oc4cnc5[nH]ccc5c4)c3)CC2)C1` [Example 2-234, (R)-2-((1H-pyrrolo[2,3-b]pyridin-5-yl)oxy)-4-(4-((4′-chloro-4,4-dimethyl-3,4,5,6-tetra-hydro-[1,1′-biphenyl]-2-yl)methyl)piperazin-1-yl)-N-((5-nitro-3-(((tetrahydro-2H-pyran-4-yl)oxy)methyl)-3,4-dihydro-2H-benzo [b][1,4]oxazin-7-yl)sulfonyl)benzamide], the concentration for half-maximal inhibition (IC50) with DOHH2 cells (Homo sapiens, DOHH-2, 120 h) was determined as 6 nM; with RS4;11 cells (Homo sapiens, RS4-11, 72 h), 14 nM.

`CC1(C)CCC(c2ccc(Cl)cc2)=C(CN2CCN(c3ccc(C(=O)NS(=O)(=O)c4cc5c(c([N+](=O)[O-])c4)N[C@@H](CC4CCOCC4)CO5)c(Oc4cnc5[nH]ccc5c4)c3)CC2)C1` [Example 2-235, (S)-2-((1H-pyrrolo[2,3-b]pyridin-5-yl)oxy)-4-(4-((4′-chloro-4,4-dimethyl-3,4,5,6-tetra-hydro-[1,1′-biphenyl]-2-yl)methyl)piperazin-1-yl)-N-((5-nitro-3-((tetrahydro-2H-pyran-4-yl)methyl)-3,4-dihdyro-2H-benzo[b] [1,4]oxazin-7-yl)sulfonyl)benzamide]: the IC50 in the assay with DOHH2 cells (Homo sapiens, DOHH-2, 120 h) was determined as 23 nM; in the assay with RS4;11 cells (Homo sapiens, RS4-11, 72 h), 10 nM.

`CC(C)OC[C@@H]1COc2cc(S(=O)(=O)NC(=O)c3ccc(N4CCN(CC5=C(c6ccc(Cl)cc6)CC(C)(C)CC5)CC4)cc3Oc3cnc4[nH]ccc4c3)cc([N+](=O)[O-])c2N1` [Example 2-236, (R)-2-((1H-pyrrolo[2,3-b]pyridin-5-yl)oxy)-4-(4-((4′-chloro-5,5-dimethyl-3,4,5,6-tetra-hydro-[1,1′-biphenyl]-2-yl)methyl)piperazin-1-yl)-N-((3-(isopropoxymethyl)-5-nitro-3,4-dihydro-2H-benzo[b][1,4]oxazin-7-yl)sulfonyl)benzamide]: the half-maximal inhibitory concentration (IC50) with DOHH2 cells (Homo sapiens, DOHH-2, 120 h) amounted to 6 nM; with RS4;11 cells (Homo sapiens, RS4-11, 72 h), 1 nM.

Regarding `CC(C)OC[C@H]1COc2cc(S(=O)(=O)NC(=O)c3ccc(N4CCN(CC5=C(c6ccc(Cl)cc6)CC(C)(C)CC5)CC4)cc3Oc3cnc4[nH]ccc4c3)cc([N+](=O)[O-])c2N1` [Example 2-237, (S)-2-((1H-pyrrolo[2,3-b]pyridin-5-yl)oxy)-4-(4-((4′-chloro-5,5-dimethyl-3,4,5,6-tetra-hydro-[1,1′-biphenyl]-2-yl)methyl)piperazin-1-yl)-N-((3-(isopropoxymethyl)-5-nitro-3,4-dihydro-2H-benzo[b][1,4]oxazin-7-yl)sulfonyl)benzamide], the half-inhibitory concentration (IC50) in the assay on DOHH2 cells (Homo sapiens, DOHH-2, 120 h) worked out at 3 nM; with RS4;11 cells (Homo sapiens, RS4-11, 72 h), 14 nM.

Turning to `CC1(C)CCC(CN2CCN(c3ccc(C(=O)NS(=O)(=O)c4cc5c(c([N+](=O)[O-])c4)N[C@H](C4CCCCC4)CO5)c(Oc4cnc5[nH]ccc5c4)c3)CC2)=C(c2ccc(Cl)cc2)C1` [Example 2-238, (R)-2-((1H-pyrrolo[2,3-b]pyridin-5-yl)oxy)-4-(4-((4′-chloro-5,5-dimethyl-3,4,5,6-tetra-hydro-[1,1′-biphenyl]-2-yl)methyl)piperazin-1-yl)-N-((3-cyclohexyl-5-nitro-3,4-dihydro-2H-benzo[b][1,4]oxazin-7-yl)sulfo-nyl)benzamide], the half-maximal inhibitory concentration (IC50) amounted to 18 nM with DOHH2 cells (Homo sapiens, DOHH-2, 120 h) and 9 nM in the assay on RS4;11 cells (Homo sapiens, RS4-11, 72 h).

Take `CC1(C)CCC(CN2CCN(c3ccc(C(=O)NS(=O)(=O)c4cc5c(c([N+](=O)[O-])c4)N[C@@H](COC4CC4)CO5)c(Oc4cnc5[nH]ccc5c4)c3)CC2)=C(c2ccc(Cl)cc2)C1` [Example 2-241, (S)-2-((1H-pyrrolo[2,3-b]pyridin-5-yl)oxy)-4-(4-((4′-chloro-5,5-dimethyl-3,4,5,6-tetra-hydro-[1,1′-biphenyl]-2-yl)methyl)piperazin-1-yl)-N-((3-(cyclopropoxymethyl)-5-nitro-3,4-dihydro-2H-benzo[b][1,4]oxazin-7-yl)sulfonyl)benzamide]: the IC50 in the assay with DOHH2 cells (Homo sapiens, DOHH-2, 120 h) amounted to 11 nM; in the assay with RS4;11 cells (Homo sapiens, RS4-11, 72 h) it was 4 nM.

On to `CC1(C)CCC(c2ccc(Cl)cc2)=C(CN2CCN(c3ccc(C(=O)NS(=O)(=O)c4cc5c(c([N+](=O)[O-])c4)N[C@H](CO[C@H]4CC[C@H](O)CC4)CO5)c(Oc4cnc5[nH]ccc5c4)c3)CC2)C1` [Example 2-243, 2-((1H-pyrrolo[2,3-b]pyridin-5-yl)oxy)-4-(4-((4′-chloro-4,4-dimethyl-3,4,5,6-tetrahydro-[1,1′-biphenyl]-2-yl)methyl)piperazin-1-yl)-N-(((R)-3-((((1r,4R)-4-hydroxycyclo-hexyl)oxy)methyl)-5-nitro-3,4-dihydro-2H-benzo[b][1,4]oxazin-7-yl)sulfonyl)benzamide], for which the IC50 came to 1 nM in the assay with DOHH2 cells (Homo sapiens, DOHH-2, 120 h) and 9 nM in the assay on RS4;11 cells (Homo sapiens, RS4-11, 72 h).

As to `CC1(C)CCC(CN2CCN(c3ccc(C(=O)NS(=O)(=O)c4cc5c(c([N+](=O)[O-])c4)N[C@@H](C4CCC(O)CC4)CO5)c(Oc4cnc5[nH]ccc5c4)c3)CC2)=C(c2ccc(Cl)cc2)C1` (stereo partly drawn) [Example 2-245A, (S)-2-((1H-pyrroo[2,3-b]pyridin-5-yl)oxy)-4-(4-((4′-chloro-5,5-dimethyl-3,4,5,6-tetra-hydro-[1,1′-biphenyl]-2-yl)methyl)piperazin-1-yl)-N-((3-(4-hydroxycyclohexyl)-5-nitro-3,4-dihydro-2H-benzo[b][1,4]oxazin-7-yl)sulfonyl)benzamide], the IC50 amounted to 1 nM with DOHH2 cells (Homo sapiens, DOHH-2, 120 h) and 1 nM in the assay with RS4;11 cells (Homo sapiens, RS4-11, 72 h).

Consider `COC1CCC(C[C@H]2COc3cc(S(=O)(=O)NC(=O)c4ccc(N5CCN(CC6=C(c7ccc(Cl)cc7)CC(C)(C)CC6)CC5)cc4Oc4cnc5[nH]ccc5c4)cc([N+](=O)[O-])c3N2)CC1` (stereo partly drawn) [Example 2-246B, (S)-2-((1H-pyrrolo[2,3-b]pyridin-5-yl)oxy)-4-(4-((4′-chloro-5,5-dimethyl-3,4,5,6-tetra-hydro-[1,1′-biphenyl]-2-yl)methyl)piperazin-1-yl)-N-((3-((4-methoxycyclohexyl)meth-yl)-5-nitro-3,4-dihydro-2H-benzo[b][1,4]oxa-zin-7-yl)sulfonyl)benzamide], for which the half-inhibitory concentration (IC50) in the assay with DOHH2 cells (Homo sapiens, DOHH-2, 120 h) was 13 nM; in the assay on RS4;11 cells (Homo sapiens, RS4-11, 72 h) it was 29 nM.

For `COC1CCC([C@H]2COc3cc(S(=O)(=O)NC(=O)c4ccc(N5CCN(CC6=C(c7ccc(Cl)cc7)CC(C)(C)CC6)CC5)cc4Oc4cnc5[nH]ccc5c4)cc([N+](=O)[O-])c3N2)CC1` (stereo partly drawn) [Example 2-247A], the IC50 in the assay on DOHH2 cells (Homo sapiens, DOHH-2, 120 h) was determined as 19 nM; with RS4;11 cells (Homo sapiens, RS4-11, 72 h) it was 24 nM.

As for `COC1CCC([C@H]2COc3cc(S(=O)(=O)NC(=O)c4ccc(N5CCN(CC6=C(c7ccc(Cl)cc7)CC(C)(C)CC6)CC5)cc4Oc4cnc5[nH]ccc5c4)cc([N+](=O)[O-])c3N2)CC1` (stereo partly drawn) [Example 2-247B, (S)-2-((1H-pyrrolo[2,3-b]pyridin-5-yl)oxy)-4-(4-((4′-chloro-5,5-dimethyl-3,4,5,6-tetra-hydro-[1,1′-biphenyl]-2-yl)methyl)piperazin-1-yl)-N-((3-(4-methoxycyclohexyl)-5-nitro-3,4-dihydro-2H-benzo[b][1,4]oxazin-7-yl)sulfonyl)benzamide], the IC50 worked out at 36 nM in the assay on DOHH2 cells and 45 nM in the assay on RS4;11 cells.

For the compound `COC1CCC([C@@H]2COc3cc(S(=O)(=O)NC(=O)c4ccc(N5CCN(CC6=C(c7ccc(Cl)cc7)CC(C)(C)CC6)CC5)cc4Oc4cnc5[nH]ccc5c4)cc([N+](=O)[O-])c3N2)CC1` (stereo partly drawn) [Example 2-248A, (R)-2-((1H-pyrrolo[2,3-b]pyridin-5-yl)oxy)-4-(4-((4′-chloro-5,5-dimethyl-3,4,5,6-tetra-hydro-[1,1′-biphenyl]-2-yl)methyl)piperazin-1-yl)-N-((3-(4-methoxycyclohexyl)-5-nitro-3,4-dihydro-2H-benzo[b][1,4]oxazin-7-yl)sulfonyl)benzamide], the IC50 turned out to be 27 nM in the assay with DOHH2 cells (Homo sapiens, DOHH-2, 120 h) and 35 nM in the assay with RS4;11 cells (Homo sapiens, RS4-11, 72 h).

For the compound `COC1CCC([C@@H]2COc3cc(S(=O)(=O)NC(=O)c4ccc(N5CCN(CC6=C(c7ccc(Cl)cc7)CC(C)(C)CC6)CC5)cc4Oc4cnc5[nH]ccc5c4)cc([N+](=O)[O-])c3N2)CC1` (stereo partly drawn) [Example 2-248B, (R)-2-((1H-pyrrolo[2,3-b]pyridin-5-yl)oxy)-4-(4-((4′-chloro-5,5-dimethyl-3,4,5,6-tetra-hydro-[1,1′-biphenyl]-2-yl)methyl)piperazin-1-yl)-N-((3-(4-methoxycyclohexyl)-5-nitro-3,4-dihydro-2H-benzo[b][1,4]oxazin-7-yl)sulfonyl)benzamide], the IC50 was 14 nM with DOHH2 cells and 64 nM in the assay with RS4;11 cells.

For the origin of these results see patent US11091478B2 (Fochon Pharmaceuticals, Ltd., priority 2017, dated 2021).
